Experimental data published in US20210321645A1, “STABILIZER FOR PYRROLOQUINOLINE QUINONE, COMPOSITION COMPRISING THE SAME, AND METHOD OF STABILIZATION” (Mitsubishi Gas Chemical Company, Inc., priority 2018, published 2021).

Assay: Accelerated storage test of beverages, BioPQQ recovery by HPLC
Format: physicochemical
Settings: beverages stored at 60° C. (Table 5), in words
Description: Analysis conditions of pyrroloquinoline quinone disodium salt
HPLC Conditions: • Shimadzu LC-2010 • Column: YMC-Pack ODS-A • Detection wavelength: 259 nm • Mobile phase: 30 mM acetic acid-70 mM ammonium acetate • Column temperature: 40° C.
(Accelerated Storage Test)
The sample of Example 1 was stored under the conditions of 60° C. for 2 weeks, which are equivalent to those of room temperature for 2 years. When the stored sample was subjected to HPLC, 97% of BioPQQ was recovered.

stabilizing effect on BioPQQ: high stabilizing effect
SMILES: OC[C@@H](O)[C@@H](O)CO [Erythritol]
